Laboratory results reported in ChEMBL document CHEMBL1201862, “PubChem BioAssay data set” (2004).
Calls of active or inactive are those of the source.

Experiments:
[1] = molecular target: Intestinal-type alkaline phosphatase (Homo sapiens, UniProt P09923); assay: human intestinal alkaline phosphatase activators, dose response, biochemical, luminescence, uHTS hits (AID 463120); format: functional
[2] = molecular target: T1, Calpain-2 catalytic subunit (Sus scrofa, UniProt P43367); assay: m-calpain protease blockers, concentration series – biochemical, fluorogenic peptide substrate, dose response (AID 1420); format: functional
T1 sequence (P43367 whole entry): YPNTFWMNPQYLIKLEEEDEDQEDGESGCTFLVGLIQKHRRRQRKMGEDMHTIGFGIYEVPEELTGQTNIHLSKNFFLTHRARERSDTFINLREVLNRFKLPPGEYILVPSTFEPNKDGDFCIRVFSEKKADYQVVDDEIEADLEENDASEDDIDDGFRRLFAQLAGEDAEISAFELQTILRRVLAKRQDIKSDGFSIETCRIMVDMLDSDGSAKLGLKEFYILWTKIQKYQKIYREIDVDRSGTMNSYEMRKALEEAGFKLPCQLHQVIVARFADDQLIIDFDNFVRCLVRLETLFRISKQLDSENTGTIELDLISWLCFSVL

[3] = molecular target: Lysine-specific demethylase 4A (Homo sapiens, UniProt O75164); assay: inhibition of JMJD2A H3K9me3 demethylation – biochemical, DELFIA europium, cherry-picked samples, selectivity assay for GASC-1 inhibitor project, dose response (AID 488840)
Sequence of Lysine-specific demethylase 4A (O75164 whole entry): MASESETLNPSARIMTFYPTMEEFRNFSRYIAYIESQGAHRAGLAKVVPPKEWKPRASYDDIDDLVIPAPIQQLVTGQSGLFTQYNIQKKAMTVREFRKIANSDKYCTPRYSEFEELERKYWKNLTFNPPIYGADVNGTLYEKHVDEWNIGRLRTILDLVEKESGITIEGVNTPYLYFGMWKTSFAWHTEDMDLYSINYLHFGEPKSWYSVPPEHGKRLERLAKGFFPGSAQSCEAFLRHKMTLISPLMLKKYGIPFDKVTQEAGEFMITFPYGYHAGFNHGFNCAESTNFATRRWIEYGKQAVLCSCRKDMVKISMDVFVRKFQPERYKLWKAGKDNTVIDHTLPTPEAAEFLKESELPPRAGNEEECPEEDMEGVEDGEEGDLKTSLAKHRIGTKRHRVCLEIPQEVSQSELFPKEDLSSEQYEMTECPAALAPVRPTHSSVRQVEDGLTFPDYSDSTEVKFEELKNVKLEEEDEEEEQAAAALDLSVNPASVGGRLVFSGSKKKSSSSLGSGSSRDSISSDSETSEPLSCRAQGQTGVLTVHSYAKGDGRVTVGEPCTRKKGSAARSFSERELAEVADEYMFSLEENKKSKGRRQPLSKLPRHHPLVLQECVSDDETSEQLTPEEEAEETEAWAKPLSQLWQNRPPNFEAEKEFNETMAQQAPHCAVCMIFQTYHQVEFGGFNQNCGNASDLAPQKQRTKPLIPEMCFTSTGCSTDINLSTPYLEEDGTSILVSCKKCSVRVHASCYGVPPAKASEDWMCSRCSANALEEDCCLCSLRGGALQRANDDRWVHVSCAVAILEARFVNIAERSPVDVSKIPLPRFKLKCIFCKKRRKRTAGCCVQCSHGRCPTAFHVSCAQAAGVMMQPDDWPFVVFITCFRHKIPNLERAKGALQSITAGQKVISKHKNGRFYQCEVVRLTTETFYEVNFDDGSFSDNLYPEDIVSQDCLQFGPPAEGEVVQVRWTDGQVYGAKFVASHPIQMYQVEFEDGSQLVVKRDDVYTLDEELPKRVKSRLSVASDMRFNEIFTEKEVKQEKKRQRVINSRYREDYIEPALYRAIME

[4] = molecular target: T2, Lysine-specific demethylase 4C (Homo sapiens, UniProt Q9H3R0); assay: inhibition of JMJD2C H3K9me3 demethylation – biochemical, DELFIA europium, cherry-picked samples, dose response (AID 488835); format: functional
T2 sequence (Q9H3R0 whole entry): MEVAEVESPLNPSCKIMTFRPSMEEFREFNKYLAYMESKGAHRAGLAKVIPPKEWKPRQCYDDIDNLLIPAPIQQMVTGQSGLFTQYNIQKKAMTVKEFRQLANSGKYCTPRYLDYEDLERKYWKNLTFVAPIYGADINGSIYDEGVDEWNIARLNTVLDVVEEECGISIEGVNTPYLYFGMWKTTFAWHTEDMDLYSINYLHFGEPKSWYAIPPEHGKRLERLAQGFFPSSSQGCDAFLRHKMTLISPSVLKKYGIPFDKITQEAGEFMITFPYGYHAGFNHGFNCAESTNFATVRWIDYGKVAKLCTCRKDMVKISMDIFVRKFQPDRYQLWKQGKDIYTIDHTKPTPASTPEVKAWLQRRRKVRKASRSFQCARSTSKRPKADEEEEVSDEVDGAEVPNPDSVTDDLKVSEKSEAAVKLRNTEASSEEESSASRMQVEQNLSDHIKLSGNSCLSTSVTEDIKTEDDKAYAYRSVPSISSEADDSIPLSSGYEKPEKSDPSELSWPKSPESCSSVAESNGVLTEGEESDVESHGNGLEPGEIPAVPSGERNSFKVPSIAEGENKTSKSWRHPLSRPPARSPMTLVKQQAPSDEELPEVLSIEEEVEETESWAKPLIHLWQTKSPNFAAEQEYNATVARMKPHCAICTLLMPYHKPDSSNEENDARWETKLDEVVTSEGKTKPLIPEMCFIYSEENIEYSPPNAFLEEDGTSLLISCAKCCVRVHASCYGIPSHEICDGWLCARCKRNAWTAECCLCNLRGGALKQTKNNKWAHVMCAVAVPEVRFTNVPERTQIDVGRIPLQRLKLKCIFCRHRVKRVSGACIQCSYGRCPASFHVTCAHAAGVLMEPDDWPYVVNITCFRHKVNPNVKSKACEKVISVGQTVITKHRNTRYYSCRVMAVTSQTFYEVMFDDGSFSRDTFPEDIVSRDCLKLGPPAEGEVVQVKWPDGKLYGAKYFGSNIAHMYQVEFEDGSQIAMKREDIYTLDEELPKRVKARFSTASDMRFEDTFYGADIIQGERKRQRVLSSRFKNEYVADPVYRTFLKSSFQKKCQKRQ

[5] = viability of HCT116 lacking mutant beta-catenin – cell-based, human colon tumor, dose response (AID 1045); format: functional;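 note: HCT116 colon tumor cells with beta catenin knocked out; cells exposed to compound for 60 hours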
Cytochrome P450 2C9 = Cytochrome P450 2C9 (Homo sapiens, UniProt P11712)
Sequence of Cytochrome P450 2C9 (P11712 whole entry): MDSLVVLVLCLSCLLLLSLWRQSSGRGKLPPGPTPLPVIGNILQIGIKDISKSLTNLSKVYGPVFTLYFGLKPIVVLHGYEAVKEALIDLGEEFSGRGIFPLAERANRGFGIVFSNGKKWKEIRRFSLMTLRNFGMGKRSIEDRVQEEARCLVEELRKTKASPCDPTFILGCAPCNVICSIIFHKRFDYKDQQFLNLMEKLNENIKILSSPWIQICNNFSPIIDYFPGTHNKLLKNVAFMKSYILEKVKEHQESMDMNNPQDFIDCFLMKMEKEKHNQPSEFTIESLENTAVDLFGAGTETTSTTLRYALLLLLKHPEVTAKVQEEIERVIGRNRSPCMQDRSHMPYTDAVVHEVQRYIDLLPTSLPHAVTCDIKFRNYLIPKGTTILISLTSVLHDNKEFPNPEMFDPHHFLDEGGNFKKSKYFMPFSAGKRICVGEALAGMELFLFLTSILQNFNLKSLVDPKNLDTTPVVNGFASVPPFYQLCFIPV

Coagulation factor XII = molecular target: T3, Coagulation factor XII (Homo sapiens, UniProt P00748); format: functional;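 note: activated factor XIIa alpha cleaving a fluorogenic AMC peptide substrate; inhibitor potency from loss of enzyme activity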
T3 sequence (P00748 whole entry): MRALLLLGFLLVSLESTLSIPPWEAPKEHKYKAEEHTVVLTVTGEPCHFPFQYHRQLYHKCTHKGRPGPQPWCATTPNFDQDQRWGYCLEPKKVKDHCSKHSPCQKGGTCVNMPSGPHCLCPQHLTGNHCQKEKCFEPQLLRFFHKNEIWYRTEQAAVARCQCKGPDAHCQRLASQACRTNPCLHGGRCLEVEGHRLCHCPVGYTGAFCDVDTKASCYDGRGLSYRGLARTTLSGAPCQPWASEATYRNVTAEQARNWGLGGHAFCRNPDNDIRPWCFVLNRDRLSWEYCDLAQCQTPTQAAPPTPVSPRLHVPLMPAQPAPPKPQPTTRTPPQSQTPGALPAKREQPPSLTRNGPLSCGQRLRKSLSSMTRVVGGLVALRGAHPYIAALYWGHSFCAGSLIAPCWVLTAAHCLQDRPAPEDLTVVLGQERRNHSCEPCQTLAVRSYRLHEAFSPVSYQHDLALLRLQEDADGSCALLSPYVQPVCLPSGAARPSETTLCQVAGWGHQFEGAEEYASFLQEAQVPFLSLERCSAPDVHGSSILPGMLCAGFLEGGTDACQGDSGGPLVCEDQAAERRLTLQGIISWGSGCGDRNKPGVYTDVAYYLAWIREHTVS

Cytochrome P450 3A4 = Cytochrome P450 3A4 (Homo sapiens, UniProt P08684);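 note: CYP3A4 tested as one member of a cytochrome P450 panel screen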
Sequence of Cytochrome P450 3A4 (P08684 whole entry): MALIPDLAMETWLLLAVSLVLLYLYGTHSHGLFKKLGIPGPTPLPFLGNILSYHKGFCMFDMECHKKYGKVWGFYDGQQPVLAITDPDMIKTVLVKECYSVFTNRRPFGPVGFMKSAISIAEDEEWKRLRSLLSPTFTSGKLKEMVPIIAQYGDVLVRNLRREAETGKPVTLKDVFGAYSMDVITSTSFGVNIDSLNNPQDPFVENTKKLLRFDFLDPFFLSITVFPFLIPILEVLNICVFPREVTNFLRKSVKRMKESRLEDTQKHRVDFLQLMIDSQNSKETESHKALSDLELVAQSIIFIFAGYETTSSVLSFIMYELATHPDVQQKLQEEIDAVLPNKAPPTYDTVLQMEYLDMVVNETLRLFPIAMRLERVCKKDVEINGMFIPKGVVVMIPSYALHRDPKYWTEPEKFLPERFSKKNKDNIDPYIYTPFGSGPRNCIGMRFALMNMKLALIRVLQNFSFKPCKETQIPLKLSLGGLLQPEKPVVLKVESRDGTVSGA

[6] = viability of PTEN-deleted HCT116 cells – cell-based, HCT116 PTEN knockout, dose response (AID 1047); format: functional;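 note: HCT116 colon tumor cells with PTEN knocked out; cells exposed to compound for 60 hours before readout; potency for loss of cell viability measured by luminescence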
[7] = molecular target: T4, Tyrosine-protein phosphatase non-receptor type 7 (Homo sapiens, UniProt P35236); format: functional
T4 sequence (P35236 whole entry): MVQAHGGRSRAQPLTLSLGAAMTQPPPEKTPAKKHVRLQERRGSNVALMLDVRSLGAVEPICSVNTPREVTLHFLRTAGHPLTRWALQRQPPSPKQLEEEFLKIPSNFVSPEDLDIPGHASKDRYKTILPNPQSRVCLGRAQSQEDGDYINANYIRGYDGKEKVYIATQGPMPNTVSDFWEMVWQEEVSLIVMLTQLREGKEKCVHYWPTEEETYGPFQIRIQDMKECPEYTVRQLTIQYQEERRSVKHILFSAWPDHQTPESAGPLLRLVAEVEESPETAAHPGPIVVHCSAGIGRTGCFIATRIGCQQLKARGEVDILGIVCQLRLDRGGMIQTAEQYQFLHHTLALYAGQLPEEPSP

[8] = molecular target: T5, Tyrosine-protein phosphatase non-receptor type 22 (Homo sapiens, UniProt Q9Y2R2); format: functional
T5 sequence (Q9Y2R2 whole entry): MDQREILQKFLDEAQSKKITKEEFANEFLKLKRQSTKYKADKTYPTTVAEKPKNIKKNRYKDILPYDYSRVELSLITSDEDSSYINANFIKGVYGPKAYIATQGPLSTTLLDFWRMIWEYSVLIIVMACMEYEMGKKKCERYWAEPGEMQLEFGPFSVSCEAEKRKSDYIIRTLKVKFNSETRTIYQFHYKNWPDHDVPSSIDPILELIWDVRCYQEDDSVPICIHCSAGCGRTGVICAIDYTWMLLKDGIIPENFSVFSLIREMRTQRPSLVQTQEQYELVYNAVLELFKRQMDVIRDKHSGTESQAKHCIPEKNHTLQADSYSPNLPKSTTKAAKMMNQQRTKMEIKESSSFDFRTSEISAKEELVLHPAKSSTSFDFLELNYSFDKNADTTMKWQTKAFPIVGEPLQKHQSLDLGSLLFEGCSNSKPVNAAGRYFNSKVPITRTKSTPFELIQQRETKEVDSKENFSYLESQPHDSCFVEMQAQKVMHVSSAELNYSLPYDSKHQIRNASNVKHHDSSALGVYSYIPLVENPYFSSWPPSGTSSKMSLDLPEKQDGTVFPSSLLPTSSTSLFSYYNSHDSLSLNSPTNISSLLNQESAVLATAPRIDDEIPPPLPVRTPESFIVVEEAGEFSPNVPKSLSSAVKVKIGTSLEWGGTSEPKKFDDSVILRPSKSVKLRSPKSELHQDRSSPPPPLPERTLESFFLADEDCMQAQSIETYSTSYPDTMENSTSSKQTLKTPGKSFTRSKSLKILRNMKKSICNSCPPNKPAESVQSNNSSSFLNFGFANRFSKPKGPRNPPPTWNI

[9] = molecular target: T5, Tyrosine-protein phosphatase non-receptor type 22; format: functional; remark: listed apart in the source
HEK293 = assay: SAR analysis of compounds that are cytotoxic to HEK293 - Set 3. [Related pubchem assays (depositor defined):AID1575, AID1578, AID1848, AID1849, AID2001, AID2333, AID2334, AID2335, AID2337, AID2469]; format: functional, cell-based; settings: Homo sapiens
Tumor necrosis factor = Tumor necrosis factor (Homo sapiens, UniProt P01375); assay: analog potency on TNFa NF-kB signaling – cell-based, set 3, SAR follow-up (AID 2801); format: functional
Sequence of Tumor necrosis factor (P01375 whole entry, the tested form may be a part): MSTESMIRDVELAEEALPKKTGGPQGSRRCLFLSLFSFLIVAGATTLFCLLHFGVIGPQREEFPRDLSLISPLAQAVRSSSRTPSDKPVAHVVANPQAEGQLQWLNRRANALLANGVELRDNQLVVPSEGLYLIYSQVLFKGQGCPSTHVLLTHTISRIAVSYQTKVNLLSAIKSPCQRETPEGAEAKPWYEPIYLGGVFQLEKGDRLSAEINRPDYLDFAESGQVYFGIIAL

[10] = molecular target: T6, Nucleotide-binding oligomerization domain-containing protein 1 (Homo sapiens, UniProt Q9Y239); assay: SAR analysis of compounds that inhibit NOD1 - Set 3. [Related pubchem assays (depositor defined):AID1566, AID1575, AID1578, AID1849, AID1852, AID2333, AID2335, AID2466]; format: functional
T6 sequence (Q9Y239 whole entry): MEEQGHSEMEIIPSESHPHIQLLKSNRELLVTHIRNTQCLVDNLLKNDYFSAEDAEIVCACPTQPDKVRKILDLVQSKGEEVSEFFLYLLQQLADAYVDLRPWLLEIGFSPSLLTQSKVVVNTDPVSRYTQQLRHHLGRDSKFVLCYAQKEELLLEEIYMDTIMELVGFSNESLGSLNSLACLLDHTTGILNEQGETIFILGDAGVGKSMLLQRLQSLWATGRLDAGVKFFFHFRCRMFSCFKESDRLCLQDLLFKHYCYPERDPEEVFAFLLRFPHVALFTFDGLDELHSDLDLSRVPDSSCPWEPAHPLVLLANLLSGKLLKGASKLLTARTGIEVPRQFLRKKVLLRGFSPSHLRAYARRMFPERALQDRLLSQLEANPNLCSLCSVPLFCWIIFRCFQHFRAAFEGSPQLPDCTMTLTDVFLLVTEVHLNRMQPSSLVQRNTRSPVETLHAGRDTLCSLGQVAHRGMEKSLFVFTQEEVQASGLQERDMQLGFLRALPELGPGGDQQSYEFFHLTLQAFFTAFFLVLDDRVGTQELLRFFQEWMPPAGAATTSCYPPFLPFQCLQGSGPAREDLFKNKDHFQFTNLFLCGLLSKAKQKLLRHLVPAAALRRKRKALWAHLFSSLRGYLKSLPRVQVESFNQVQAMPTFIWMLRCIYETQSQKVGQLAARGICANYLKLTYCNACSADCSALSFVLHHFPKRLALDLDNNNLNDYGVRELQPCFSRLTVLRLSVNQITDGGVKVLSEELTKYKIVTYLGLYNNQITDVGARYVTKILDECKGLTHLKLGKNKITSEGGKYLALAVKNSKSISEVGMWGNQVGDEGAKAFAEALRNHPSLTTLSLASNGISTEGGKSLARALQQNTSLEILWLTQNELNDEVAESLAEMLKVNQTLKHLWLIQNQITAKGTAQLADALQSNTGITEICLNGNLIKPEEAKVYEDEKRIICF

[11] = molecular target: Nucleotide-binding oligomerization domain-containing protein 2 (Homo sapiens, UniProt Q9HC29); assay: inhibition of MDP-driven NOD2 NF-kB reporter – cell-based, set 3, SAR follow-up (AID 2799); format: functional
Sequence of Nucleotide-binding oligomerization domain-containing protein 2 (Q9HC29 whole entry, the tested form may be a part): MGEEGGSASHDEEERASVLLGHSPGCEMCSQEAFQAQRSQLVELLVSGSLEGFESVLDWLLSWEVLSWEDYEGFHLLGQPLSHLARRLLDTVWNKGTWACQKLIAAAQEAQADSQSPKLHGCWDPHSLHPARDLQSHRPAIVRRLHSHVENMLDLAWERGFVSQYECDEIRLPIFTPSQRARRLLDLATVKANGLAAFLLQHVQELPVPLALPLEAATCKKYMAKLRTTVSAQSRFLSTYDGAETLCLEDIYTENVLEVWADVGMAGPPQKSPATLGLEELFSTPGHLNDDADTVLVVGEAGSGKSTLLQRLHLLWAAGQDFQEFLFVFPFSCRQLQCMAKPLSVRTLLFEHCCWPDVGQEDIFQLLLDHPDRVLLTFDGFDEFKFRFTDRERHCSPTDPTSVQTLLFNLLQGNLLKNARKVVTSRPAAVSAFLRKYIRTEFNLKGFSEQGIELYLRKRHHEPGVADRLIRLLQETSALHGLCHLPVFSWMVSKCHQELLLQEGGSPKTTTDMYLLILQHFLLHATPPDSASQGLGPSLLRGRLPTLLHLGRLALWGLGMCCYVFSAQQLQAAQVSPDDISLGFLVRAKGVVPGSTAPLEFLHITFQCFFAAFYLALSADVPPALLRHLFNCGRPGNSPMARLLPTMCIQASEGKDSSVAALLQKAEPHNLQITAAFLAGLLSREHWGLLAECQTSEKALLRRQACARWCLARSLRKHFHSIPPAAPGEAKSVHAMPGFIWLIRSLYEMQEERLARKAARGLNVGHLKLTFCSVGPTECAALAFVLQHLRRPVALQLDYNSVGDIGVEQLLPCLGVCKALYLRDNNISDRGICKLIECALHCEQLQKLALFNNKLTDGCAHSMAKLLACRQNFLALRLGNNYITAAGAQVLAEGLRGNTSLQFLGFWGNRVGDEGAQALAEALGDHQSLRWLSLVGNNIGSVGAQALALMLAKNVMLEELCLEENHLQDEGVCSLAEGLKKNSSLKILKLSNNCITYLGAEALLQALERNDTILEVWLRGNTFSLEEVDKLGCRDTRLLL

Sequence of Intestinal-type alkaline phosphatase (P09923 whole entry): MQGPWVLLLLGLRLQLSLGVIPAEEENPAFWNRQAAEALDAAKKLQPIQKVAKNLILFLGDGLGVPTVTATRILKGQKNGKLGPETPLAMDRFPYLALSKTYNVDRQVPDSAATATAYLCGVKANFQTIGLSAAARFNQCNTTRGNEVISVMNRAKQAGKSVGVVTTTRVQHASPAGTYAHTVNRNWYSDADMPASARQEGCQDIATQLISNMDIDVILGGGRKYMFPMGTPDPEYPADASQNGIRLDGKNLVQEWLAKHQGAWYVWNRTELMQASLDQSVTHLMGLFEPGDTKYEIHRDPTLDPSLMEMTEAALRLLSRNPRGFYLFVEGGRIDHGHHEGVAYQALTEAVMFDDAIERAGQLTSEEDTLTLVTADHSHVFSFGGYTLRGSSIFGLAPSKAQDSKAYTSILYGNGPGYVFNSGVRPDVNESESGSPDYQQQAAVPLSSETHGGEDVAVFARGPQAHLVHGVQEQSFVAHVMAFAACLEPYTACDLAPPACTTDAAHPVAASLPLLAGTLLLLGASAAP

For `Cc1cc2cc3c(cc2nc1SCC(=O)Nc1nc(C)c(C)s1)OCO3`, which EC50 [1] is on record?
Its EC50 is 25 µM (active).

What about the IC50 [2] of the same molecule?
The IC50 was 24.1 µM (not active).

For `CC(C)Oc1ccc(Cc2c(O)nc(O)nc2O)cc1`, which AC50 [3] is on record?
Its AC50 is 17.5 µM (active).

And the AC50 [4]?
Its AC50 is 2.86 µM (active).

What does the source list for `Cc1ccccc1NC(=O)c1cccc2nc3ccccc3nc12`?
EC50 [5]: 21.9 µM (active); AC50 (Cytochrome P450 2C9): 8.91 µM (inconclusive); IC50 (Coagulation factor XII): > 50 µM (inactive); AC50 (Cytochrome P450 3A4): inconclusive; EC50 [6]: 23.8 µM (active)

With `COc1ccc(C2C(C(C)=O)=C(O)C(=O)N2c2nccs2)cc1OC` (configuration not stated) as the molecule, how does the IC50 (Coagulation factor XII) read?
The IC50 was > 50 µM (inactive).

Which results are given for `Cc1nn(Cc2cccc(C(=O)NC34CC5CC(CC(C5)C3)C4)c2)c(C)c1Br`?
IC50 [7]: > 79.4 µM (inactive); IC50 [8]: > 79.4 µM (inactive); IC50 [9]: > 79.4 µM (inactive)

Which IC50 (HEK293) does the source give for `Nc1nc2ccccc2n1S(=O)(=O)c1cccc2ccccc12` here?
Its IC50 is > 20 µM (inactive).

And the IC50 (Tumor necrosis factor)?
The IC50 was > 20 µM (inactive).

And the IC50 [10]?
Its IC50 is > 20 µM (inactive).

What about the IC50 [11] of the same molecule?
Its IC50 is > 20 µM (inactive).
